Laboratory results as given in patent US8535741B2, “Method and composition for administering bioactive compounds derived from Morinda citrifolia” (priority 2006, dated 2013).

What was measured:
[1] = system: human epidermoid carcinoma cell line-A431; test: cells; type: cell-based; conditions: for Percent Grown: A431, 72-hour exposure
Method: In this example, assays were performed to detect changes in cell proliferation based on the ability of viable cells to cause alamarBlue to change from non-fluorescent blue to a reduced, fluorescent red form. With the results obtained from the alamarBlue reaction, cell proliferation can be quantified and metabolic activity of viable cells can be examined. Test compounds including Morinda citrifolia leaf extract, leaf juice, and roast leaf were tested for their effects on the proliferation of human epidermoid carcinoma cell line-A431 at assay concentrations from 0.01 to 100 μg/ml or 0.0001% to 1% through serial 10-fold dilutions.
Morinda citrifolia leaf extract, leaf juice, and roast leaf were provided by Tahitian Noni International, Inc. for in vitro anti-tumor studies. The Morinda citrifolia compounds were dissolved in sterile distilled water and then diluted with sterile distilled water to obtain initial working solutions of 10000, 1000, 100, 10, and 1 μg/ml for the leaf extract and roast leaf, as well as 100, 10, 1, 0.1 and 0.01% for the leaf juice. In testing, 100-fold dilution was made in culture media to get final assay concentrations of 100, 10, 1, 0.1 and 0.01 μg/ml, and 1, 0.1, 0.01, 0.001 and 0.0001%, respectively.
The tumor cell line, A431 (human epidermoid carcinoma), obtained from American Type Culture Collection (ATCC CRL-1555), was incubated in an air atmosphere of 5% CO2 at 37° C. The culture medium was used with Dulbecco's Modified Eagle's medium, 90%; Fetal Bovine Serum, 10% and supplemented with 1% Antibiotic-Antimycotic.
The anti-proliferation for the test substances was evaluated. Aliquots of 100 µl of cell suspension (about 3×10^3/well) were placed in 96-well microtiter plates in an atmosphere of 5% CO2 at 37° C. […] Two test compounds, leaf extract and roast leaf, were evaluated at concentrations of […]. The other compound, leaf juice, was evaluated at concentrations of 1, 0.1, 0.01, 0.001 and 0.0001%. At the end of incubation, 20 µl of 90% alamarBlue reagent was added to each well for another 6-hour incubation before detection of cell viability by fluorescent intensity. Fluorescent intensity was measured using a Spectrafluor Plus plate reader with excitation at 530 nm and demission at 590 nm.
IC50, TGI, and LC50 values were then determined. […] TGI (Total Growth Inhibition) is the test compound concentration where the number or mass of treated cells at the end of the experiment was equal to that at time0. […] The measured results were calculated by the following formula: PG(%)=100×(Mean Ftest−Mean Ftime0)^/(Mean Fctr l−Mean Ftime0)
If (Mean Ftest−Mean Ftime0)^<0, then PG(%)−100×(Mean Ftest−Mean Ftime0)/(Mean Ftime0−Mean Fblank)
Where: PG=percent growth; Mean Ftime0=The average of 2 measured fluorescent intensities of reduced alamarBlue at the time just before exposure of cells to the test substance; Mean Ftest=The average of 2 measured fluorescent intensities of alamarBlue after 72-hour exposure of cells to the test substance; Mean Fctrl=The average of 2 measured fluorescent intensities of alamarBlue after 72-hour incubation without the test substance; and Mean Fblank=The average of 2 measured fluorescent intensities of alamarBlue in medium without cells after 72-hour incubation.
A decrease of 50% or more (≧50%) in fluorescent intensity relative to the vehicle-treated control indicated significant cell growth inhibition, cytostatic or cytotoxic activity, and a semi-quantitative IC50, TGI, and LC50 were then determined by nonlinear regression using GraphPad Prism (GraphPad Software, USA).

Adenosine A2A = Adenosine A2A (Homo sapiens, UniProt P29274); test: bio-assay on Adenosine A2A; conditions: isolated from squeezed juice of fresh Morinda citrifolia leaf
From the text: Their structures have been determined by NMR techniques and mass spectrometry and they have been identified as Pyro-phorbide a, Pheoporbide a, Purpin 7, and Pheophorbide Phytolester. The isolation and characterization of the above referenced bioactive compounds provides a significant explanation for the anti-inflammatory and analgesic properties of extracts derived from the Morinda citrifolia plant, particularly from the leaf of the plant.

Sequence of Adenosine A2A (P29274 whole entry): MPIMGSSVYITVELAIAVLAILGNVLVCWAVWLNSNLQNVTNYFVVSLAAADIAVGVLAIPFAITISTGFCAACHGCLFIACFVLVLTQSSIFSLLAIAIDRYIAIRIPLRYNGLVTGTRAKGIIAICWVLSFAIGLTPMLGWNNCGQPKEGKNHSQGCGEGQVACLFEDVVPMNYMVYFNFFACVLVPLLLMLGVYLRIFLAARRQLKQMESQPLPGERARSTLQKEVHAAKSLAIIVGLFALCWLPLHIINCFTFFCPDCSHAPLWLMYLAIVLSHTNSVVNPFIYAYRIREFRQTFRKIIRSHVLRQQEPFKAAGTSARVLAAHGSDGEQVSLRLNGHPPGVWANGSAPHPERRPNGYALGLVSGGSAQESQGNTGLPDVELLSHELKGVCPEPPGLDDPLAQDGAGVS

Compound: CO[C@@]12[C@H](COC(N)=O)C3=C(C(=O)C(C)=C(N)C3=O)N1C[C@@H]1N[C@@H]12 [Mitomycin]
- Percent Grown ([1]; Concentration 0.001 (ttM)): 101 +/− 5%
- Percent Grown ([1]; Concentration 0.01 (ttM)): 82 +/− 3%
- Percent Grown ([1]; Concentration 0.1 (ttM)): 7 +/− 3%
- Percent Grown ([1]; Concentration 1 (ttM)): 35 +/− 8%
- Percent Grown ([1]; Concentration 10 (ttM)): 97 +/− 0%
- IC50 ([1]; Homo sapiens, A-431, Tumor, Skin (A431), semi-quantitative, nonlinear regression, read-out: IC50 (50% Inhibition Concentration)): 35 nM
- TGI (Total Growth Inhibition) ([1]; Tumor, Skin (A431), semi-quantitative, nonlinear regression): 190 nM
- inhibitory activity on tumor cell growth ([1]; at <10 p.M, A431): Significant inhibitory activity

Compound: Pheophorbide Phytolester
- bioactivity in bio-assay on Adenosine A2A (Adenosine A2A): significant bioactivity

Compound: Pheoporbide a
- bioactivity in bio-assay on Adenosine A2A (Adenosine A2A): significant bioactivity

Compound: Purpin 7
- bioactivity in bio-assay on Adenosine A2A (Adenosine A2A): significant bioactivity

Compound: Pyro-phorbide a
- bioactivity in bio-assay on Adenosine A2A (Adenosine A2A): significant bioactivity
